Data: patent US10912759B2 (priority 2018, dated 2021)

Columns and labels:
[1] = tested on: S. aureus; experiment: MIC and MBC of topical gel vs. Mupirocin; type: cell-based, Staphylococcus aureus; details: 0-10% w/v, overnight at 37° C., aliquots plated, lack of any growth
Experimental: MIC was determined by visually observing where turbid growth stopped, MBC was determined by taking aliquots from each tube, plating onto media, and observation for lack of any growth.
Mupirocin is the standard ointment for treatment of S. aureus topical infections. […] MIC was determined by visually observing where turbid growth stopped, MBC was determined by taking aliquots from each tube, plating onto media, and observation for lack of any growth.

[2] = tested on: PsrA; experiment: S. aureus gene expression by RT-PCR; type: cell-based; details: 1% (w/v), one hour, RNA level by RT-PCR
Description: (§1) FIG. 10 is a graph showing the effect of the topical gel on S. aureus gene expression compared to mupirocin treatment. Results are expressed as percent change in intensity values.
(§2) FIG. 11 is a graph showing the effect of the topical gel on S. aureus gene expression compared to control and mupirocin treatment. Results are expressed as gene expression intensity ratios.
(§3) In an effort to elucidate the mechanism of action of the topical gel on S. aureus as well as to examine any commonalities or differences in Staphylococcal response to treatment, transcriptional response was evaluated. S. aureus was either 1) grown alone as a control, 2) grown in 1% (w/v) topical gel, or 3) grown in 1% (w/v) Mupirocin for one hour. Cells were harvested and total RNA was extracted. Reverse Transcriptase polymerase chain reaction using gene specific primers was utilized to determine the RNA levels for the specific genes RecA, SprX, and PsrA. RecA is a protein specific for SOS response in Staphylococcus indicative of a need to repair DNA damage. SprX is a small RNA associated with Staphylococcus antibiotic resistance. PsrA regulates expression of proteins in the cell wall of Staphylococcus which are both essential for bacterial survival and antibiotic resistance.

[3] = tested on: SprX; type: cell-based, S. aureus; details: 1% (w/v), one hour, RNA level by RT-PCR
Description: as §1, §2, §3

`C/C(=C\C(=O)OCCCCCCCCC(=O)O)C[C@@H]1OC[C@H](C[C@@H]2O[C@H]2[C@@H](C)[C@H](C)O)[C@@H](O)[C@H]1O` [Mupirocin] was tested, and the “MBC values compared to topical gel” value [1] was “lower MBC values”, the “reduction of expression of PsrA” value [2] was 56% and the “reduction of expression of SprX” value [3] was 78%.
